Experiments:
[1] = test system: T cells isolated from mouse spleens; assay: T cell proliferation inhibition (CFSE flow cytometry, anti-CD3/anti-CD28 stimulation); assay type: cell-based; conditions: Mus musculus, T-cell, 72 h, mouse spleen T cells, 3 days, read-out: Proliferation inhibition rate (%); for inhibition at 0.01 µM: compound 10 nM; for inhibition at 0.1 µM: compound 100 nM; for inhibition at 1 µM: compound 1 μM; for inhibition at 10 µM: compound 10 μM; for inhibition at 30 µM: compound 30 μM; for inhibition at 50 µM: compound 50 μM
In short: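 Splenic T cells from 7-week-old C57BL/6 mice were MACS-isolated, CFSE-labelled, seeded at 2×10^5 cells/well and activated with anti-CD3/anti-CD28 (0.5 μg/mL each). Compound at 10 nM–50 μM (six levels, triplicate) was present for 3 days at 37 °C before flow cytometric readout of proliferation inhibition rate.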

[2] = test system: Human B Lymphocyte cell line, SU-DHL-8; assay: Relative cell viability CCK-8, SU-DHL-8; assay type: cell-based; conditions: Homo sapiens, SU-DHL-8, 48 h, 48 hours, untreated (DMSO) = 100%; for viability at 1 µM: read-out: Relative cell viability (%), SU-DHL-8, 1 μM; for viability at 10 µM: read-out: Relative cell viability (%), SU-DHL-8, 10 μM; for viability at 30 µM: read-out: Relative cell viability (%), SU-DHL-8, 30 μM; for viability at 50 µM: read-out: Relative cell viability (%), SU-DHL-8, 50 μM
In short: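 Cells grown in RPMI-1640 with 10% FBS, treated with compound at several concentrations, then given CCK-8 for 4 h at 37° C. Viability expressed as percent of DMSO-treated cells.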

[3] = test system: Human Cervical Carcinoma cell line, HeLa; assay: Relative cell viability CCK-8, HeLa; assay type: cell-based; conditions: 48 hours
Description: Similarly, human-derived cervical cancer cell line HeLa and renal cancer cell line ACHN, obtained from the Korean Cell Bank, were cultured in DMEM medium containing 10% FBS, 100 U/mL penicillin, and 100 μg/mL streptomycin.
(§1) Following stabilization, the cells were harvested using Trypsin-EDTA treatment, centrifuged at 1,200 rpm for 3 minutes, the supernatant was removed, and the cells were resuspended in the same medium. They were then seeded into a 96-well plate (Costar 96-well cell culture plate, Corning) at 100 μL per well, and the conditions were adjusted as indicated in Table 5.
(§2) The cells were cultured in a 5% CO2 incubator at 37° C. for 24 hours, and after stabilization of the cells, each plate was washed with 200 μL of PBS per well and treated with 50 μL of culture medium per well.
(§3) The compounds according to the present invention or the control group (DMSO) were added at concentrations of 0, 10, 30, and 50 μM in 50 μL aliquots to the plates, and the plates were cultured at 37° C. in a 5% CO2 incubator for 48 hours.
(§4) After that, 10 μL of CCK-8 was added to each well, and the plate was incubated again at 37° C. in a 5% CO2 incubator for 2 hours.
(§5) In other words, when the survival rate of untreated cells (DMSO) is set at 100%, the relative cell survival rate in each group treated with the drug at different concentrations is indicated.

[4] = test system: Human Breast Cancer cell line, MCF-7; assay: Relative cell viability CCK-8, MCF-7; assay type: cell-based; conditions: 48 hours
Description: (§6) Human-derived breast cancer cell line MCF-7, human-derived lung cancer cell line A549, human-derived colorectal cancer cell line HCT-116, human pancreatic cancer cell line AsPC-1, glioblastoma cell line A172, and melanoma cell line Malme-3M were obtained from the Korean Cell Bank. gastric cancer cell line SNU-719, and bladder cancer cell line T24 were cultured in RPMI-1640 medium containing 10% FBS.
as §1, §2, §3, §4, §5

[5] = test system: Human Colorectal Carcinoma cell line, HCT-116; assay: Relative cell viability CCK-8, HCT-116; assay type: cell-based; conditions: Homo sapiens, HCT-116, 48 hours
Description: as §6, §1, §2, §4, §5

[6] = test system: Human Pancreas Adenocarcinoma cell line, AsPC-1; assay: Relative cell viability CCK-8, AsPC-1; assay type: cell-based; conditions: 48 hours
Description: as §6, §1, §2, §4, §5

[7] = test system: Human Gastric cancer cell, SNU-719; assay: Relative cell viability CCK-8, SNU-719; assay type: cell-based; conditions: 48 hours
Description: as §6, §1, §2, §4, §5

[8] = test system: Human Bladder cancer cell, T24; assay: Relative cell viability CCK-8, T24; assay type: cell-based; conditions: Homo sapiens, 48 h
Description: as §6, §1, §2, §4, §5

[9] = test system: HCT-116 colon cancer cell lines; assay: Matrigel Invasion Assay, HCT-116; assay type: cell-based, human; conditions: 24 hours treatment, FIG. 30
Description: To evaluate the metastasis inhibitory efficacy of the compounds of the present invention on HCT-116 colon cancer cell lines, an Invasion Assay using Matrigel was performed to assess the cells' invasion ability.
First, Matrigel was thawed on ice in RPMI-1640 medium without FBS, then diluted with DMEM at a ratio of 1:20.
The diluted Matrigel mixture was applied to the upper chamber at 100 μl per well, and 750 μl of RPMI-1640 without FBS was added to the lower chamber.
The plates were then incubated at 37° C. for 1 hour to allow the Matrigel to solidify.
After coating, the Matrigel mixture in the upper chamber was removed using a pipette, and the chamber was washed with RPMI without FBS.
Human-derived colorectal cancer cell line HCT-116, obtained from the Korean Cell Bank, was cultured in RPMI-1640 medium containing 10% FBS.
Following stabilization, the cells were harvested using Trypsin-EDTA treatment, centrifuged at 1,200 rpm for 3 minutes, the supernatant was removed, and the cells were resuspended in the same medium, the medium in the lower chamber was replaced with 750 μl of RPMI-1640 supplemented with 10% FBS, and the cells were seeded into the upper chamber at a density of 5×10^4 cells/well.
The cells were cultured for 24 hours after attachment, and then the compounds according to the present invention (G078, G085, G086, G088, G089, PBK-2024-010, PBK-2025-010, PBK-2025-013, PBK-2025-016) and the control substance DMSO were diluted and added to the upper chamber after removing the medium.
Additionally, the medium in the lower chamber was replaced with fresh RPMI-1640 containing FBS, and the culture was continued.
After an additional 24 hours, the medium was removed, and 1 ml of methanol was added for 10 minutes to fix the cells.
Subsequently, 1 ml of Hematoxylin was added and reacted for 5 minutes, followed by 1 ml of Eosin, which was reacted for 30 seconds. The sample was then washed with distilled water (DW).
After staining was complete, any remaining cells in the upper chamber were removed. Finally, the infiltrated cells were observed under a microscope, photographed, and the degree of infiltration was analyzed.

Nc1ncccc1C(=O)NCCCCCCCCCCCCN1CCc2ccccc2C1 [Compound 3, 2-Amino-N-[12-(3,4-dihydro-1H-isoquinolin-2-yl)-dodecyl]-nicotinamide]
inhibition at 0.01 µM [1]: 4.99%
inhibition at 0.1 µM [1]: 0%
inhibition at 1 µM [1]: 0%
inhibition at 10 µM [1]: 88.3%
inhibition at 30 µM [1]: 100%
inhibition at 50 µM [1]: 100%
viability at 1 µM [2]: 29.1%
viability at 10 µM [2]: 25.7%
viability at 30 µM [2]: 24.7%
viability at 50 µM [2]: 23.5%
viability at 1 µM ([3]; 1 μM): 16.4%
viability at 10 µM ([3]; 10 μM): 3.26%
viability at 30 µM ([3]; 30 μM): 1.07%
viability at 50 µM ([3]; 50 μM): 0.73%
viability at 1 µM ([4]; MCF7, 1 μM): 35.4%
viability at 10 µM ([4]; MCF7, 10 μM): 9.1%
viability at 30 µM ([4]; MCF7, 30 μM): 4.02%
viability at 50 µM ([4]; MCF7, 50 μM): 1.95%

O=C(NCCCCCCCCCCCCN1CCN2CCCC2C1)c1cccnc1 (stereo not drawn) [Compound 23, N-(12-(hexahydropyrrolo[1,2-a]pyrazin-2 (1H)-yl)dodecyl) nicotinamide]
inhibition at 0.01 µM [1]: -12.8%
inhibition at 0.1 µM [1]: 100%
inhibition at 1 µM [1]: 100%
inhibition at 10 µM [1]: 100%
inhibition at 30 µM [1]: 100%
inhibition at 50 µM [1]: 100%
viability at 1 µM [2]: 16.1%
viability at 10 µM [2]: 15.7%
viability at 30 µM [2]: 9.17%
viability at 50 µM [2]: 1.97%
viability at 1 µM ([5]; 1 μM): 13.1%
viability at 10 µM ([5]; 10 μM): 14.6%
viability at 30 µM ([5]; 30 μM): 14%
viability at 50 µM ([5]; 50 μM): 13%
viability at 1 µM ([6]; ASPC1, 1 μM): 42.4%
viability at 10 µM ([6]; ASPC1, 10 μM): 44.5%
viability at 30 µM ([6]; ASPC1, 30 μM): 42.7%
viability at 50 µM ([6]; ASPC1, 50 μM): 42%
viability at 1 µM ([7]; 1 μM): 36.1%
viability at 10 µM ([7]; 10 μM): 35.9%
viability at 30 µM ([7]; 30 μM): 40.4%
viability at 50 µM ([7]; 50 μM): 35.6%
viability at 1 µM ([8]; 1 μM): 10%
viability at 10 µM ([8]; 10 μM): 10.1%
viability at 30 µM ([8]; 30 μM): 9.53%
viability at 50 µM ([8]; 50 μM): 9.46%
Number of infiltrated cells (invasion) [9]: reduction in the number of infiltrated cells

From patent publication US20260183274A1, “PDK1 REGULATORY COMPOUND AND COMPOSITION CONTAINING THE SAME” (PROVIBIO CO., LTD., priority 2024, published 2026)
